Results: patent US20160143877A1, “COMPOSITION FOR SUPPRESSING ADIPOCYTE DIFFERENTIATION, FOR REDUCING FAT ACCUMULATION AND/OR FOR PROMOTING ADIPONECTIN SECRETION AND USAGE FOR SAID COMPOSITION” (PUBLIC UNIVERSITY CORPORATION OSAKA CITY UNIVERSITY, priority 2013, published 2016)

How the values were obtained:
[1] = test system: 3T3-L1 cells; experiment: Adipocyte differentiation: TG accumulation by Oil red 0 staining, sesaminol added during differentiation induction; type: cell-based, Mouse; settings: read after Day 8
Protocol: Preadipocytes, when differentiated into adipocytes, intracellularly accumulate lipid droplets containing TG and the like. In the present Example, sesaminol was added to preadipocyte during induction of differentiation and intracellular TG after completion of induction was stained with an azo dye, Oil red 0, to evaluate an effect of sesaminol on adipocyte differentiation. Mouse fibroblast cell line 3T3-L1 (Japan Health Sciences Foundation) were used as preadipocytes. 3T3-L1 cells were inoculated at a concentration of 1.0×10^5 to 1.0×10^6 cells/ml and cultured until they reached 80 to 90% confluence in a 5% CO2 incubator at 37° C. The culture medium used was Dulbecco's modified Eagle's medium (DMEM: Nissui Pharmaceutical Co., Ltd.) containing 10% fetal bovine serum (FBS: Nichirei Biosciences, Inc.), penicillin (50 units/ml, Meiji Co., Ltd.) and streptomycin ([…], Meiji Co., Ltd.). […] After washing, cells were analysed under a microscope (OLYMPUS IX-70: Olympus Corporation) and photographed.

[2] = test system: 3T3-L1 adipocytes; experiment: Adiponectin expression level in adipocytes by SDS-PAGE and western blotting; type: cell-based, Mouse; settings: sesaminol 0.5 or 1.0 μg/ml added to differentiated adipocytes, three days
Protocol: Various physiologically active adipocytokines are secreted from adipocytes. Among these adipocytokines, adiponectin is known to improve insulin resistance and prevent atherosclerosis. In the present Example, the profile of adiponectin secretion after addition of sesaminol to adipocytes was analysed by SDS-PAGE and western blotting.
In the same manner as in (1-1) in Example 1, preadipocyte 3T3-L1 cells were cultured until they reached 80 to 90% confluence. […]
The sesaminol solution was added so as to obtain the final concentration of sesaminol of 0.5 or 1.0 μg/ml in adipocytes. […] An aliquot of the collected supernatant was subjected to protein quantification using Serva Blue G (Serva Electrophoresis GmbH) based on the absorbance at 595 nm in order to calculate the amount of sample applied to electrophoresis.
Equal volumes of the supernatant containing cell lysate and a sample buffer were mixed to prepare a sample for electrophoresis. […] The membrane was then subjected to reaction in a DAB solution (3,3′-diaminobenzidine tetrahydrochloride (10 mg), distilled water (1 ml), 0.2 M PBS (50 ml) and 30% H2O2 (100 μl)), dried and then subjected to quantification of intensity of bands using Scion Image (free software: Scion). The ratio of the band intensity of adiponectin relative to the band intensity of β-actin was calculated for the samples.

[3] = test system: 3T3-L1 adipocytes; experiment: Fat (TG) accumulation in differentiated adipocytes, Oil red 0 staining and absorbance at 520 nm; type: cell-based, Mouse; settings: sesaminol 0.5 or 1.0 μg/ml added to differentiated adipocytes, three days
Protocol: In the same manner as in (1-1) in Example 1, preadipocyte 3T3-L1 cells were cultured until they reached 80 to 90% confluence. Then the medium was replaced with DMEM containing differentiation inducing agents which were bovine insulin (0.2 μM, Wako Pure Chemical Industries, Ltd.), dexamethasone (0.25 μM, Wako Pure Chemical Industries, Ltd.) and 3-isobutyl-1-methylxanthine (0.5 mM, Wako Pure Chemical Industries, Ltd.) (this is referred to as “Day 0 of differentiation induction”). After two days, the medium was replaced with DMEM containing only insulin (0.2 μM). Thereafter, the medium was replaced with fresh DMEM every two days and induction of differentiation was completed on Day 8 of differentiation induction to obtain adipocytes.
To the obtained adipocytes, the sesaminol solution was added so as to obtain the final concentration of sesaminol of 0.5 or 1.0 μg/ml. As a control, cells were cultured without addition of the sesaminol solution. […] Cells were analysed under a microscope (OLYMPUS IX-70: Olympus Corporation) and photographed. […] After microscopic observation, cells were added with isopropanol (3 ml) to extract Oil red 0 staining solution and the resulting extract was measured for absorbance at 520 nm. According to the measured values, TG accumulations in cells were compared. […]

[4] = test system: 3T3-L1 cells; experiment: Adipocyte differentiation: glycerol-3-phosphate dehydrogenase (GPDH) activity of cells after differentiation induction; type: cell-based, Mouse; settings: sesaminol 0.5 or 1.0 μg/ml during differentiation induction; ** p<0.01 vs control
Protocol: GPDH is a rate-limiting enzyme of triacylglycerol (TG; also referred to as triglyceride) synthesis in adipocytes. […] Thus GPDH activity of cells after differentiation induction was measured according to the method of Wise and Green (Wise, L. S. and Green, H., (1979) Participation of one isozyme of cytosolic glycerophosphate dehydrogenase in the adipose conversion of 3T3 cells. The Journal of Biological Chemistry, 254, 273-275). Cells used for the GPDH assay were obtained in the same manner as described in (1-1) and (1-2). As a control, cells were differentiated without addition of the sesaminol solution.
Adipocytes derived from 3T3-L1 cells on or after Day 8 of induction were washed twice with PBS. Cells were added with a buffer for enzymatic extraction (100 mM triethanolamine, 2.5 mM EDTA) (300 μl) and collected using a cell scraper. […]
To a test tube containing the buffer for enzymatic extraction (2800 μl) which was maintained at 28° C. in a water bath, 2-mercaptoethanol (final concentration: 0.1 mM), NADH (final concentration: 0.12 mM), dihydroxyacetone phosphate (DHAP: SIGMA) (final concentration: 0.2 mM) and a measurement sample (50 μl) were added and the absorbance was measured over 3 minutes at 340 nm. GPDH activity was calculated using an extinction coefficient of NADH (6.22 mM^−1cm^−1) on the basis of the change of absorbance per minute (NADH variation). […]

[5] = test system: various cell lines used in Examples; experiment: Toxicity and viability check of the sesaminol solution on the cell lines used; type: cell-based; settings: sesaminol solution (3.0 mg/ml in DMSO) as used in Examples
Protocol: The highly concentrated sesaminol solution was dissolved in dimethyl sulphoxide (DMSO) to prepare a sesaminol solution (3.0 mg/ml) to be used in Examples.

Oc1cc2c(cc1C1OCC3C(c4ccc5c(c4)OCO5)OCC13)OCO2 (stereo not shown) [sesaminol]
cells that did not contain stained lipid droplets (Oil red 0, FIG. 1) ([1]; sesaminol 0.5 μg/ml added on Days 0, 2, 4 and 6 of differentiation induction): many cells | cells that did not contain stained lipid droplets (Oil red 0, FIG. 1) ([1]; sesaminol 1.0 μg/ml added on Days 0, 2, 4 and 6 of differentiation induction): almost all the cells | adiponectin expression level (band intensity ratio adiponectin/β-actin, control = 1, FIG. 5) [2]: significantly enhanced with an increase in the amount of sesaminol added | size of lipid droplets in adipocytes (FIG. 3) [3]: tend to decrease the size compared to the control | TG accumulation in adipocytes (FIG. 4, percent of control) ([3]; * p<0.05 vs control): decreased TG accumulation | GPDH activity of cells after differentiation induction (FIG. 2, percent of control) [4]: decreased with an increase in the amount of sesaminol added | toxicity to and effect on viability of cell lines [5]: not toxic to and did not affect viability
